According to US12318401B2, “Injectable shear-thinning hydrogel containing therapeutic agent for enhanced tumor therapy” (MAYO FOUNDATION FOR MEDICAL EDUCATION AND RESEARCH, priority 2021, dated 2025):

System: B16F10 melanoma tumor cells
Experiment: In vivo anti-cancer efficacy in melanoma tumor model
Design: species or system C57B1/6J mice
Details: subcutaneous B16F10 melanoma in mice
Method: Finally, in vivo anti-cancer efficacy of DOX-STB was analyzed in a melanoma tumor model made by subcutaneous injection of B16F10 melanoma tumor cells into C57B1/6J mice (FIG. 7A).

`COc1cccc2c1C(=O)c1c(O)c3c(c(O)c1C2=O)C[C@@](O)(C(=O)CO)C[C@@H]3O[C@H]1C[C@H](N)[C@H](O)[C@H](C)O1` [DOX, doxorubicin] was tested, and the “tumor size in gross” value was “tumor size decreased”.
